Measurements: patent US12016864B2, “LOX enzyme inhibiting methods and compositions” (ANOVIA BIOSCIENCES, INC., priority 2021, dated 2024)

Biological target: T1, Recombinant human LOXL3 (lysyl oxidase like 3) (Homo sapiens, UniProt P58215)
T1 construct: purchased R&D systems
T1 sequence (P58215 26-753): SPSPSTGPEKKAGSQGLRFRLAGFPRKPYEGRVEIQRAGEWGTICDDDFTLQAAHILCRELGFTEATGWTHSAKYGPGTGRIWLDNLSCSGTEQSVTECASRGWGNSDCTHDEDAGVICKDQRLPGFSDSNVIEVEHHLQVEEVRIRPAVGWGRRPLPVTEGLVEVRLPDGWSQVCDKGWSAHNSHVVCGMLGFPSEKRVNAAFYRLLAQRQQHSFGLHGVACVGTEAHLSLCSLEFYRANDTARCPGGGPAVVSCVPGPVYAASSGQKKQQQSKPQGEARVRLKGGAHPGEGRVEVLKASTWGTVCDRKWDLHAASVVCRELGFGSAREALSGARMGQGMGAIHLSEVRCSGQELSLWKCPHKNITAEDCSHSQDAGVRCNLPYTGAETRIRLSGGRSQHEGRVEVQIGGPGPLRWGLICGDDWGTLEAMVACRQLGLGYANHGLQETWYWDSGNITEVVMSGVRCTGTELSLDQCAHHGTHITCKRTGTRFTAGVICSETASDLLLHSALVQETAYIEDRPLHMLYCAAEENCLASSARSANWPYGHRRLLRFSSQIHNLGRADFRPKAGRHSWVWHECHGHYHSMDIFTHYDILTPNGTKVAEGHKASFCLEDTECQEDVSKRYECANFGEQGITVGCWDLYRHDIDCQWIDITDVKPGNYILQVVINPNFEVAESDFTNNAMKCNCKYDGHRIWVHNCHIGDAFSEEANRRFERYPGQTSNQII
Assay: LOXL3 inhibition assay, fluorometric (cadaverine / HRP / Amplex Red)
Assay type: biochemical
Settings: recombinant human LOXL3 150 nM; 30 min preincubation at 37° C.; 1 mM cadaverine; read-out: Activity Range LOXL3
Method: The ability of compounds to inhibit one or more of the lysyl oxidases LOXL2 and/or LOXL3 was determined using a fluorometric assay. This assay measures the activity of lysyl oxidases by coupling the reaction with horseradish peroxidase-catalyzed […]. The activity assay protocol uses cadaverine as substrate that releases hydrogen peroxide upon transformation by the specific LOX family enzyme present in the sample. Hydrogen peroxide is in turn detected using a red fluorescence substrate for HRP-coupled reactions (Amplex Red Enzyme Assays, Thermo Scientific Fisher). This leads to increase in fluorescence that can be easily detected at Ex/Em=540/590 nm in a fluorescence microplate reader.
Recombinant human LOXL2 (lysyl oxidase like 2) and recombinant human LOXL3 (lysyl oxidase like 3) were purchased from R&D systems and assays were performed in 1.2 M urea, 50 mM sodium borate buffer pH 8.0, and 10 mM CaCl.
5 μl of freshly prepared reaction buffer were delivered to reaction wells. Compounds were resuspended in 100% DMSO at 10 mM and delivered into buffer using acoustic technology (Echo550; nanoliter range). A 3× solution of LOXL2 or LOXL3 in reaction buffer was prepared (“enzyme solution”) and 5 μL of enzyme solution was added into the reaction wells. Buffer only was added to column 1 for no protein control. Reactions were incubated for 30 minutes at 37° C. A 3× mixture of cadaverine, Amplex Red, and HRP (“Substrate/Detection Mix) was prepared and subsequently 5 μL of the mixture added to each reaction well. Progress of reactions was monitored for 60 minutes at 37° C. using Clariostar plate reader (ex 530-12, ems 600-40). For all activity assays, pan-LOX inhibitor CCT365623 (Tang et al, 2017) and LOXL2/LOXL3 inhibitor PAT-1251 (PharmaKea) were included as standards.
For the data analysis, the slope of the linear portion of the progress curve was calculated using Clariostar software. Typical analysis interval was between 8-30 min, but varied between experiments. The background-subtracted signals (No protein wells are considered as background) were converted to % activity relative to DMSO controls. Data was analyzed using GraphPad Prism 4 with “sigmoidal dose-response (variable slope)”; 4 parameters with Hill Slope. Constraints: Bottom=Constant equal to 0. Top=Must be less than 120.

Row | Structure (SMILES) | IC50
1 | NCc1ccnc(S(=O)(=O)C[C@@H]2C[C@H](c3ccccc3)CN2S(=O)(=O)N2CCOCC2)c1 (racemic) [Example 195, Cis-(2-(((1-(Morpholinosulfonyl)-4-phenylpyrrolidin-2-yl)methyl)sulfonyl)pyridin-4-yl)methanamine 2,2,2-trifluoroacetate] | ≤ 500 nM
2 | NCc1ccnc(S(=O)(=O)C[C@@H]2C[C@H](c3ccccc3)CN2S(=O)(=O)N2CCS(=O)(=O)CC2)c1 (racemic) [Example 196, cis-4-((2-(((4-(Aminomethyl)pyridin-2-yl)sulfonyl)methyl)-4-phenylpyrrolidin-1-yl)sulfonyl)thiomorpholine 1,1-dioxide 2,2,2-trifluoroacetate] | ≤ 500 nM
3 | NCc1ccnc(S(=O)(=O)C[C@H]2C[C@@H](c3ccccc3)CN2S(=O)(=O)N2CCOCC2)c1 (single isomer, unassigned) [Example 195A] | ≤ 500 nM
4 | NCc1ccnc(S(=O)(=O)C[C@@H]2C[C@H](c3ccccc3)CN2S(=O)(=O)N2CCOCC2)c1 (single isomer, unassigned) [Example 195B] | ≤ 500 nM

The next lines start with the values.

Row | IC50 | Structure (SMILES)
5 | ≤ 500 nM | NCc1ccnc(S(=O)(=O)C[C@@H]2C[C@H](c3ccccc3)CN2S(=O)(=O)N2CCS(=O)(=O)CC2)c1 [Example 196A, 4-(((2S,4R)-2-(((4-(aminomethyl)pyridin-2-yl)sulfonyl)methyl)-4-phenylpyrrolidin-1-yl)sulfonyl)thiomorpholine 1,1-dioxide 2,2,2-trifluoroacetate]
6 | ≤ 500 nM | NCc1ccnc(S(=O)(=O)C[C@H]2C[C@@H](c3ccccc3)CN2S(=O)(=O)N2CCS(=O)(=O)CC2)c1 [Example 196B, 4-(((2R,4S)-2-(((4-(aminomethyl)pyridin-2-yl)sulfonyl)methyl)-4-phenylpyrrolidin-1-yl)sulfonyl)thiomorpholine 1,1-dioxide 2,2,2-trifluoroacetate]
